Publication PMC4230446 (Biochemistry, 2009)

Target: T1, pyruvate formate-lyase activating enzyme (PFL-AE) (Escherichia coli, UniProt P0A9N4)
T1 sequence (P0A9N4 2-246): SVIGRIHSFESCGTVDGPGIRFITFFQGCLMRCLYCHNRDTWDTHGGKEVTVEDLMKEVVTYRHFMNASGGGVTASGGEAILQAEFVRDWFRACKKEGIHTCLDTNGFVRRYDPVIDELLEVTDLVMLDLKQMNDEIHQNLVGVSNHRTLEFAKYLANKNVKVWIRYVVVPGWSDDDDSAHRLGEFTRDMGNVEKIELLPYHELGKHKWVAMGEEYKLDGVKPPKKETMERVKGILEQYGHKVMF
Test: […] Mössbauer spectroscopy
Format: binding
Details: 0.64 mM enzyme, [4Fe-4S]2+ state; 4.2 K, 50 mT; unique Fe site of cluster

SMILES: Nc1ncnc2c1ncn2[C@@H]1O[C@H](COP(=O)(O)OP(=O)(O)O)[C@@H](O)[C@H]1O [ADP]
- fraction of LOC cluster at 6.4 mM: 50 % of total Fe

SMILES: Nc1ncnc2c1ncn2[C@@H]1O[C@H](COP(=O)(O)O)[C@@H](O)[C@H]1O [AMP]
- fraction of LOC cluster at 6.4 mM: 69 % of total Fe
